{"source": "ChEMBL document CHEMBL1130368", "about": "“Potent carboxylate inhibitors of stromelysin containing P2 piperazic acids and P1 biaryl moeities” (Bioorg Med Chem Lett, 1997)", "molecular_target": "Stromelysin-1 (Homo sapiens, UniProt P08254)", "sequence (P08254 whole entry)": "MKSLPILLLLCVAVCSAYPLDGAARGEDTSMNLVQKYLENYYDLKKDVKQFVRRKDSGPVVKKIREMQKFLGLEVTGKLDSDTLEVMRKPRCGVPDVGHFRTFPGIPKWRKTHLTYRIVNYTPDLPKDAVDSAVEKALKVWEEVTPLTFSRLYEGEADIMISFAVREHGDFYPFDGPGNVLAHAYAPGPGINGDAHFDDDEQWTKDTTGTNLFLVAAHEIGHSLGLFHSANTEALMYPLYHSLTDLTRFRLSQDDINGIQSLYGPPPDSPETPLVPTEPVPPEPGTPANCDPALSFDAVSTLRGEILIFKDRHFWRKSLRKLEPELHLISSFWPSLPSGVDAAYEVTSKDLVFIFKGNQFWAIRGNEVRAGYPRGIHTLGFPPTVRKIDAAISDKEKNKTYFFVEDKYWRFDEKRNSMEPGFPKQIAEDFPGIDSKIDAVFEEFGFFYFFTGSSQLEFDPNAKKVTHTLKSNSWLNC", "assay": "Inhibition of Matrix metalloprotease-3 by MCA peptide assay", "data": [{"molecule": "CCCCc1ccc(OCC[C@H](N[C@H](C)C(=O)O)C(=O)N2NCCC[C@H]2C(=O)NC)cc1", "values": [{"measurement": "Ki", "result": 550, "unit": "nM"}]}, {"molecule": "CNC(=O)[C@H](Cc1ccc(OC)cc1)NC(=O)[C@H](CCc1ccccc1)C[C@H](C)C(=O)O", "values": [{"measurement": "IC50", "result": 55000, "unit": "nM"}]}, {"molecule": "CCCC[C@@H](C[C@@H](CCc1ccc(-c2ccccc2)cc1)C(=O)N[C@@H](Cc1ccc(OC)cc1)C(=O)NC)C(=O)O", "values": [{"measurement": "Ki", "result": 21, "unit": "nM"}]}, {"molecule": "CCCC[C@@H](C[C@@H](CCc1ccc(-c2ccccc2)cc1)C(=O)N1NCCC[C@H]1C(=O)NC)C(=O)O", "values": [{"measurement": "Ki", "result": 42, "unit": "nM"}]}, {"molecule": "CNC(=O)[C@H](Cc1ccc(OC)cc1)NC(=O)[C@H](CCc1ccc(-c2ccccc2)cc1)C[C@H](C)C(=O)O", "values": [{"measurement": "IC50", "result": 81, "unit": "nM"}]}, {"molecule": "CNC(=O)[C@@H]1CCCNN1C(=O)[C@H](CCOc1ccc(-c2ccccc2)cc1)N[C@H](C)C(=O)O", "values": [{"measurement": "Ki", "result": 77, "unit": "nM"}]}, {"molecule": "CNC(=O)[C@@H]1CCCNN1C(=O)[C@H](CCOc1ccc(Cc2ccccc2)cc1)N[C@H](C)C(=O)O", "values": [{"measurement": "Ki", "result": 552, "unit": "nM"}]}, {"molecule": "CNC(=O)[C@@H]1CCCNN1C(=O)[C@H](CCOc1ccc(C(C)C)cc1)N[C@H](C)C(=O)O", "values": [{"measurement": "IC50", "result": "> 200000", "unit": "nM"}]}, {"molecule": "CNC(=O)[C@@H]1CCCNN1C(=O)[C@H](CC(C)C)[C@H](C)C(=O)NO", "values": [{"measurement": "IC50", "result": 30, "unit": "nM"}]}, {"molecule": "CNC(=O)[C@@H]1CCCNN1C(=O)[C@H](CCOc1ccc(CC2CCCC2)cc1)N[C@H](C)C(=O)O", "values": [{"measurement": "IC50", "result": "> 200000", "unit": "nM"}]}]}
